Patent publication US20250000843A1, “LIGNAN-INSPIRED COMPOUNDS, METHODS OF MAKING, AND USING THEREOF” (IOWAIBO, INC., priority 2023, published 2025)

Experiments:
[1] = target: T1, telomerase (Homo sapiens, UniProt O14746); experiment: Q-TRAP telomerase activity in MCF7 breast cancer cells; assay type: cell-based; set-up: allow the enzymatic addition of telomeric DNA repeats by endogenous telomerase; endogenous in cells
[2] = target: T1, telomerase; experiment: Q-TRAP telomerase activity in PC3 prostate cancer cells; assay type: cell-based; set-up: allow the enzymatic addition of telomeric DNA repeats by endogenous telomerase; endogenous in cells; host or cells: PC3 prostate cancer cells (protein extract of lysed cell pellets); key to Significance of RTA difference vs. control: No: non-significant; Yes (*): p < 0.05; Yes (**): p < 0.01; Yes (***): p < 0.001; Yes (****): p < 0.0001
Description: The general mechanism of the Q-TRAP technique involves cellular pellets being lysed for protein extraction which is then subsequently quantified and stored under specific conditions to avoid protein degradation. Protein obtained in the process was used within 72 hours and samples were stored at 4° C. Telomerase protein extracts are then incubated with a specific oligonucleotide substrate to allow the enzymatic addition of telomeric DNA repeats by endogenous telomerase. Following the enzymatic reaction, telomerase extension products are then amplified and quantified by real-time qPCR. In real time PCR, a positive reaction is detected by accumulation of a fluorescent signal. The Ct (cycle threshold) is defined as the number of cycles required for fluorescence to cross the threshold (i.e.: exceeds background levels). […] Data are reported as relative telomerase activity (RTA). […] Telomeric repeat amplification protocol (TRAP) was modified for quantitative real-time PCR (Q-TRAP) and was used to determine the effect of dibenzyl butyl lactone derivative on telomerase activity in prostate cancer cell. The same methods as used in Example 3 were employed. The same abbreviation scheme as presented in Table 7 is used throughout this example as well.

T1 sequence (O14746 whole entry): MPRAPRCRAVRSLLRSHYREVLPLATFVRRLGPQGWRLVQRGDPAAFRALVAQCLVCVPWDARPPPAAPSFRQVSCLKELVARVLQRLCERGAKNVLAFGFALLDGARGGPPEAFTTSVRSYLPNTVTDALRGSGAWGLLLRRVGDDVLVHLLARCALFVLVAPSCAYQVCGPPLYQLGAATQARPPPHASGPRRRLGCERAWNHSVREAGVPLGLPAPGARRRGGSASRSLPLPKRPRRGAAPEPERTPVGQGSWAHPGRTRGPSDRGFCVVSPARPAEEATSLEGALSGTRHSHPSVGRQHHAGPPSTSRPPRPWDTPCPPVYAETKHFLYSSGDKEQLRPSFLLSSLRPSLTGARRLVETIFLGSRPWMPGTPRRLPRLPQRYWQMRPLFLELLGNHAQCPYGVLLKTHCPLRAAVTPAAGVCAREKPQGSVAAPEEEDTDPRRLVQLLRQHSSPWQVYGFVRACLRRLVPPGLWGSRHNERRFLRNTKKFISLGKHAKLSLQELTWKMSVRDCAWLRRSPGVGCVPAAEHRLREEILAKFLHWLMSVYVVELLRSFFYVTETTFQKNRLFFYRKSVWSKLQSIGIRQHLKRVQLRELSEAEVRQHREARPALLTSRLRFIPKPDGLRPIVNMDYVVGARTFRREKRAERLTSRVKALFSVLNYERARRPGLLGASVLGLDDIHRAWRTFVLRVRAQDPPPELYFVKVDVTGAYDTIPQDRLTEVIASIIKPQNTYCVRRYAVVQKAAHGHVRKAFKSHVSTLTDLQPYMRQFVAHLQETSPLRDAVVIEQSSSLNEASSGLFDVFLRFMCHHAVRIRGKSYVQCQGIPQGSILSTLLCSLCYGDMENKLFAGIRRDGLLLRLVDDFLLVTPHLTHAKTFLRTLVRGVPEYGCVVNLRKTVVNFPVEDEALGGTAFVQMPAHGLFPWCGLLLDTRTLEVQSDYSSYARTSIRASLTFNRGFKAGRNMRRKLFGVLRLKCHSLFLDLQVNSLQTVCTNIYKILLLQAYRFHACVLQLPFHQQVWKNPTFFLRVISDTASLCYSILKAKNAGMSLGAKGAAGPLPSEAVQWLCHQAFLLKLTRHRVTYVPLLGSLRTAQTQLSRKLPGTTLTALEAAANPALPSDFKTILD
T1 sequence (O60832 whole entry partner): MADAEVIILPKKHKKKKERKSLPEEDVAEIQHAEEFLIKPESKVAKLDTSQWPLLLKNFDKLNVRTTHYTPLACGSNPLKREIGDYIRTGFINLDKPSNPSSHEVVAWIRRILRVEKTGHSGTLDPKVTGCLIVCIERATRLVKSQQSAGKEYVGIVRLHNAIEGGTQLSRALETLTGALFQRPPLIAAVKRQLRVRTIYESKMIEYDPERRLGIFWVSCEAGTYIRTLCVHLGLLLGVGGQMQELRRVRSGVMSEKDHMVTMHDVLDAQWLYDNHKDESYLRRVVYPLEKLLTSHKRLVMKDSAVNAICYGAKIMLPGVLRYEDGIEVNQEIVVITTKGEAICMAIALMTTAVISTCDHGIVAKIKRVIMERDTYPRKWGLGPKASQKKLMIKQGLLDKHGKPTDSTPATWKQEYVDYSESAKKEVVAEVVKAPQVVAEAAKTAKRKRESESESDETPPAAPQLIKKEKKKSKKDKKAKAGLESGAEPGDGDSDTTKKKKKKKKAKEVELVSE
T1 sequence (Q9NPE3 whole entry partner): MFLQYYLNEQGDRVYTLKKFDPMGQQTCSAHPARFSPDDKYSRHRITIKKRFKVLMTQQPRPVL
T1 sequence (Q9NX24 whole entry partner): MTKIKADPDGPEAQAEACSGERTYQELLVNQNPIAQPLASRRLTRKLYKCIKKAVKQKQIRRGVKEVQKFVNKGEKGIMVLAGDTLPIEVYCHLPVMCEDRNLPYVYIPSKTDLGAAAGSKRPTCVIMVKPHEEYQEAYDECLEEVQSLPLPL
T1 sequence (Q9NY12 whole entry partner): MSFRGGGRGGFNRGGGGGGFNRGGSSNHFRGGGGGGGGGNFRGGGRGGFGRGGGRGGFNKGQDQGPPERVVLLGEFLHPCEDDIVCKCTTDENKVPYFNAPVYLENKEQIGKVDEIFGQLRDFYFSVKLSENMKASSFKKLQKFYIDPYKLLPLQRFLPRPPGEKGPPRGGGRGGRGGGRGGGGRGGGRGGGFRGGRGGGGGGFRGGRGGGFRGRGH
T1 sequence (Q9BUR4 whole entry partner): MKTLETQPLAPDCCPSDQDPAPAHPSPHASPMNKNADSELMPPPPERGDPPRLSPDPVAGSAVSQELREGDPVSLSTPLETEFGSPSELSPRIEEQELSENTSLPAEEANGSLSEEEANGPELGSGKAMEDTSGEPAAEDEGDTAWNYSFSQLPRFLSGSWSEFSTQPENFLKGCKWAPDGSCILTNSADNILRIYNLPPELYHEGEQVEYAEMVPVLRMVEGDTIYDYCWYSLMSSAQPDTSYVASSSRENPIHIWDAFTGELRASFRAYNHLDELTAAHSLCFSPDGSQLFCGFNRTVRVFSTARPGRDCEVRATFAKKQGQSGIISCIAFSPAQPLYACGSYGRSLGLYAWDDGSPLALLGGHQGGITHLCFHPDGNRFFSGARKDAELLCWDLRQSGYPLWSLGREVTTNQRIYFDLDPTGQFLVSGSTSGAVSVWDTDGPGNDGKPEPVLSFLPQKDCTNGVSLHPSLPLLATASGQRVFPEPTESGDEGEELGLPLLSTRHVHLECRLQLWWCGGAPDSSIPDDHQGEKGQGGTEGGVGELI

## O=C1OCC(Cc2ccc3c(c2)OCO3)/C1=C\c1cccc(O)c1 (single isomer, unassigned) [Enantiomer A, 3-[(3,4-dimethoxyphenyl)cyclopentyl], 4-[(3-hydroxyphenol)methyl]oxolan-2-one]
[1]; MCF7, 2.5 μM, 24 Hours
  Telomerase Activity RTA (%): 115.47%
[1]; MCF7, 2.5 μM, 48 Hours
  Telomerase Activity RTA (%): 49.73%
[1]; MCF7, 2.5 μM, 72 Hours
  Telomerase Activity RTA (%): 15.70%
[1]; MCF7, 5 μM, 24 Hours
  Telomerase Activity RTA (%): 35.54%
[1]; MCF7, 5 μM, 48 Hours
  Telomerase Activity RTA (%): 29.14%
[1]; MCF7, 5 μM, 72 Hours
  Telomerase Activity RTA (%): 14.77%
[1]; MCF7, 10 μM, 24 Hours
  Telomerase Activity RTA (%): 40.24%
[1]; MCF7, 10 μM, 48 Hours
  Telomerase Activity RTA (%): 28.47%
[1]; MCF7, 10 μM, 72 Hours
  Telomerase Activity RTA (%): 15.87%
[1]; MCF7, 20 μM, 24 Hours
  Telomerase Activity RTA (%): 25.50%
[1]; MCF7, 20 μM, 48 Hours
  Telomerase Activity RTA (%): 41.20%
[1]; MCF7, 20 μM, 72 Hours
  Telomerase Activity RTA (%): 5.82%
[1]; MCF7, 40 μM, 24 Hours
  Telomerase Activity RTA (%): 62.53%
[1]; MCF7, 40 μM, 48 Hours
  Telomerase Activity RTA (%): 36.82%
[1]; MCF7, 40 μM, 72 Hours
  Telomerase Activity RTA (%): 0.86%
[1]; MCF7, 24 h
  IC50: ~2490 nM
[1]; MCF7, 24 hours
  telomerase activity levels of treated groups compared to control: lower telomerase activity levels compared to control
[1]; MCF7, 24 hours, 5 μM
  Significance of RTA difference vs. control: YES (*)
[1]; MCF7, 24 hours, 10 μM
  Significance of RTA difference vs. control: YES (*)
[1]; MCF7, 24 hours, 20 μM
  Significance of RTA difference vs. control: YES (*)
[1]; MCF7, 24 hours, 40 μM
  Significance of RTA difference vs. control: YES (*)
[1]; MCF7, 48 h
  IC50: 2230 nM
[1]; MCF7, 48 hours
  telomerase activity levels of treated groups compared to control: lower telomerase activity levels compared to control
[1]; MCF7, 48 hours, 5 μM
  Significance of RTA difference vs. control: YES (*)
[1]; MCF7, 48 hours, 10 μM
  Significance of RTA difference vs. control: YES (**)
[1]; MCF7, 48 hours, 40 μM
  Significance of RTA difference vs. control: YES (*)
[1]; MCF7, 72 h
  IC50: 19800 nM
[1]; MCF7, 72 hours
  telomerase activity levels of treated groups compared to control: groups treated with the two highest concentrations presented further lower RTA levels
[1]; MCF7, 72 hours, 40 μM
  Significance of RTA difference vs. control: YES (**)
[1]; MCF7 breast cancer cells
  telomerase inhibition effect: exhibit a telomerase inhibition effect
[2]; PC3, 2.5 μM, 24 Hours
  Telomerase Activity RTA (%): 49.67%
[2]; PC3, 2.5 μM, 48 Hours
  Telomerase Activity RTA (%): 21.48%
[2]; PC3, 2.5 μM, 72 Hours
  Telomerase Activity RTA (%): 18.63%
[2]; PC3, 5 μM, 24 Hours
  Telomerase Activity RTA (%): 44.11%
[2]; PC3, 5 μM, 48 Hours
  Telomerase Activity RTA (%): 7.86%
[2]; PC3, 5 μM, 72 Hours
  Telomerase Activity RTA (%): 15.77%
[2]; PC3, 10 μM, 24 Hours
  Telomerase Activity RTA (%): 20.76%
[2]; PC3, 10 μM, 48 Hours
  Telomerase Activity RTA (%): 3.60%
[2]; PC3, 10 μM, 72 Hours
  Telomerase Activity RTA (%): 19.40%
[2]; PC3, 20 μM, 24 Hours
  Telomerase Activity RTA (%): 22.61%
[2]; PC3, 20 μM, 48 Hours
  Telomerase Activity RTA (%): 2.51%
[2]; PC3, 20 μM, 72 Hours
  Telomerase Activity RTA (%): 5.20%
[2]; PC3, 40 μM, 24 Hours
  Telomerase Activity RTA (%): 29.78%
[2]; PC3, 40 μM, 48 Hours
  Telomerase Activity RTA (%): 6.23%
[2]; PC3, 40 μM, 72 Hours
  Telomerase Activity RTA (%): 1.48%
[2]; PC3, 24 h
  IC50: 5.18 µM
[2]; PC3, 24 hours
  telomerase activity levels of treated groups compared to control: lower telomerase activity levels compared to control
[2]; PC3, 24 hours, 2.5 μM
  Significance of RTA difference vs. control: No
[2]; PC3, 24 hours, 5 μM
  Significance of RTA difference vs. control: Yes (*) (Yes (*): p < 0.05)
[2]; PC3, 24 hours, 10 μM
  Significance of RTA difference vs. control: Yes (**) (Yes (**): p < 0.01)
[2]; PC3, 24 hours, 20 μM
  Significance of RTA difference vs. control: Yes (***) (Yes (***): p < 0.001)
[2]; PC3, 24 hours, 40 μM
  Significance of RTA difference vs. control: Yes (**) (Yes (**): p < 0.01)
[2]; PC3, 48 h
  IC50: 4.71 µM
[2]; PC3, 48 hours
  telomerase activity levels of treated groups compared to control: lower telomerase activity levels compared to control
[2]; PC3, 48 hours, 2.5 μM
  Significance of RTA difference vs. control: No
[2]; PC3, 48 hours, 5 μM
  Significance of RTA difference vs. control: Yes (*) (Yes (*): p < 0.05)
[2]; PC3, 48 hours, 10 μM
  Significance of RTA difference vs. control: Yes (**) (Yes (**): p < 0.01)
[2]; PC3, 48 hours, 20 μM
  Significance of RTA difference vs. control: Yes (**) (Yes (**): p < 0.01)
[2]; PC3, 48 hours, 40 μM
  Significance of RTA difference vs. control: Yes (*) (Yes (*): p < 0.05)
[2]; PC3, 72 h
  IC50: 18.7 µM
[2]; PC3, 72 hours
  telomerase activity levels of treated groups compared to control: lower telomerase activity levels compared to control
[2]; PC3, 72 hours, 2.5 μM
  Significance of RTA difference vs. control: No
[2]; PC3, 72 hours, 5 μM
  Significance of RTA difference vs. control: Yes (*) (Yes (*): p < 0.05)
[2]; PC3, 72 hours, 10 μM
  Significance of RTA difference vs. control: No
[2]; PC3, 72 hours, 20 μM
  Significance of RTA difference vs. control: Yes (*) (Yes (*): p < 0.05)
[2]; PC3, 72 hours, 40 μM
  Significance of RTA difference vs. control: Yes (**) (Yes (**): p < 0.01)
[2]; PC3 prostate cancer cell line
  telomerase inhibition effect: exhibits a telomerase inhibition effect in a PC3 prostate cancer cell line that is more prolonged throughout all time points
